# Source: patent US12404345B2, “Humanized antibodies against iRHOM2” (SCIRHOM GMBH, priority 2021, dated 2025)
# Tested on: PMA-induced release of endogenous HB-EGF from human PBMCs from healthy donors
# Assay: ELISA-based HB-EGF release assay, PMA-induced, PBMCs from healthy donors
# Format: cell-based
# Details: PBMC, Batimastat 10 μM, PMA 25 ng/ml, 24 hours
# Description: In the following study, ELISA-based HB-EGF release assays were performed to analyze the inhibitory effects of the antibodies of the invention on PMA-induced release of endogenous HB-EGF from primary human material obtained from healthy donors using peripheral blood mononuclear cells (PBMCs).
# In brief, on day 1, Nunc black MaxiSorp® 96-well plates (Thermo Fisher Scientific, USA) were coated overnight with 100 μl per well of mouse anti-human HB-EGF capture antibody (provided as part of the DuoSet ELISA kit) at 2 μg/ml TBS at 4° C. […]
# After 4 times washing with 350 μl TBS-T (Carl Roth, Germany) per well on a 96-head plate washer (Tecan Group, Switzerland) and careful removal of all buffer traces after the fourth cycle, 100 μl streptavidin-AP (R&D Systems, USA) diluted 1:10,000 in TBS were added to each well and, again protected from direct light, plates were incubated at room temperature for 30 minutes. […] Using an infinite M1000 (Tecan Group, Switzerland) microplate reader, the fluorescence of each well was collected at an excitation wavelength of 435 nm and an emission wavelength of 555 nm.
structure (smiles),measurement,value
CNC(=O)[C@H](Cc1ccccc1)NC(=O)[C@H](CC(C)C)[C@H](CSc1cccs1)C(=O)NO [Batimastat],inhibition at 10 µM,100%
